A word on the MIC: it is the lowest concentration that inhibits growth of the organism.

Type in all cases: cell-based, E. coli
One assay deals with N99/pUC21. Kind of assay: MIC of amino acids and analogues on M9 agar, strain N99/pUC21. The following applies: Escherichia coli; N99/pUC21 (vector control; same data with N99/pUK21); M9 agar (2%), about 10^4 viable cells, doubling increments. On the procedure: (§1) Therefore, the effect of the pRhtB and pRhtC plasmids on susceptibility of the strain N99 which is a streptomycin-resistant (Str^R) mutant of the known strain W3350 (VKPM B-1557) to some amino acids and amino acid analogues was tested. Overnight broth cultures (10^9 cfu/ml) of the strains N99/pUC21, N99pUK21, N99/pRhtB and N99/pRhtC were diluted 1:100 in M9 minimal medium and grown for 5 h in the same medium. Then the log phase cultures thus obtained were diluted and about 10^4 viable cells were applied to well-dried test plates with M9 agar (2%) containing doubling increments of amino acids or analogues. Thus the minimum inhibitory concentrations (MIC) of these compounds were examined.

Another assay has as its system N99/pRhtC. As to the kind of experiment: MIC of amino acids and analogues on M9 agar, strain N99/pRhtC. The following applies: Escherichia coli; N99/pRhtC (multicopy rhtC); M9 agar (2%), about 10^4 viable cells, doubling increments. Here is the method: as §1
A further assay has as its system N99/pRhtB. Kind of assay: MIC of amino acids and analogues on M9 agar, strain N99/pRhtB. The following applies: Escherichia coli. Here is the method: as §1

`CCC(O)C(N)C(=O)O` (stereo not drawn) [AHVA, α-amino-β-hydroxyvaleric-acid]: the MIC was found to be 100 µg/mL with N99/pUC21, 15000 µg/mL in the assay with N99/pRhtC and 2000 µg/mL with N99/pRhtB.
With `N[C@@H](CCO)C(=O)O` [L-homoserine], the MIC in the assay on N99/pUC21 is 1000 µg/mL; with N99/pRhtC it was 1000 µg/mL; in the assay on N99/pRhtB, 20000 µg/mL.
As to `N[C@@H](Cc1c[nH]cn1)C(=O)O` [L-histidine], the values for the MIC in the assay on N99/pUC21, in the assay on N99/pRhtC and with N99/pRhtB were 5000 µg/mL, 40000 µg/mL and 5000 µg/mL, respectively.
For `CN(C)CC(N)C(=O)O` (racemic) [4-aza-DL-leucine], the MIC with N99/pUC21 came out at 50 µg/mL; in the assay on N99/pRhtC it was 50 µg/mL; in the assay with N99/pRhtB, 100 µg/mL.
On to `CC(C)[C@H](N)C(=O)O` [L-valine], for which the MIC stood at 0.5 µg/mL with N99/pUC21, 2 µg/mL with N99/pRhtC and 0.5 µg/mL with N99/pRhtB.
Consider `C[C@@H](O)[C@H](N)C(=O)O` [L-threonine], for which the values for the MIC with N99/pUC21, in the assay with N99/pRhtC and in the assay with N99/pRhtB were 30000 µg/mL, 80000 µg/mL and 40000 µg/mL, respectively.
With `CO[C@H](C)[C@H](N)C(=O)O` [O-methyl-L-threonine], the MIC in the assay on N99/pUC21, in the assay with N99/pRhtC and with N99/pRhtB was 20 µg/mL throughout.
In the case of `NCCSC[C@H](N)C(=O)O` [AEC, S-(2-aminoethyl)-L-cysteine], the values for the MIC with N99/pUC21, in the assay with N99/pRhtC and in the assay with N99/pRhtB were 5 µg/mL, 5 µg/mL and 20 µg/mL, respectively.
